Reference: the supplement of paper PMC10307832

What was measured:
Assay in all cases: relative viability (nuclei count vs DMSO), 5 days (fraction); higher = more cells survive
[1] = compound: C1CNCCC1C2=CC(=NN2)C3=CC=NC=C3 + Cc1nc(NC(=O)N2CCC[C@H]2C(N)=O)sc1-c1ccnc(C(C)(C)C(F)(F)F)c1 [Alpelisib] (partner 2 µM)
How it was run: (§1)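 Values are medians from duplicate plates. Each reflects relative viability, defined as the nuclei count of treated wells over that of vehicle wells. Lung cancer cell lines in 1536-well plates were pin-tool dosed one day after seeding with one drug alone or with a fixed anchor-drug dose plus five library-drug doses (not always all listed) in √10 steps, then fixed, stained and imaged at 4× after 5 days.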

[2] = compound: C1CNCCC1C2=CC(=NN2)C3=CC=NC=C3 + Cc1nc(Nc2ncc(C(=O)Nc3c(C)cccc3Cl)s2)cc(N2CCN(CCO)CC2)n1 [Dasatinib] (partner 0.075 µM)
How it was run: as §1

[3] = compound: C[C@@H](N)c1ccc(C(=O)Nc2ccnc3[nH]ccc23)cc1 + COc1cccc2cc(-c3nc([C@H]4CC[C@H](C(=O)O)CC4)n4ncnc(N)c34)[nH]c12 [OSI-027] (partner 0.5 µM)
How it was run: as §1

[4] = compound: C[C@@H](N)c1ccc(C(=O)Nc2ccnc3[nH]ccc23)cc1 + Nc1nc2[nH]cc(CCc3ccc(C(=O)N[C@@H](CCC(=O)O)C(=O)O)cc3)c2c(=O)[nH]1 [Pemetrexed] (partner 0.2 µM)
How it was run: as §1

Cell Line	relative viability ([1]; first compound 0.08 µM)	relative viability ([1]; first compound 0.8 µM)	relative viability ([1]; first compound 2.53 µM)	relative viability ([1]; first compound 8 µM)	relative viability ([2]; first compound 0.08 µM)	relative viability ([2]; first compound 0.8 µM)	relative viability ([2]; first compound 2.53 µM)	relative viability ([2]; first compound 8 µM)	relative viability ([3]; first compound 0.04 µM)	relative viability ([3]; first compound 0.1265 µM)	relative viability ([3]; first compound 0.4 µM)	relative viability ([3]; first compound 1.265 µM)	relative viability ([3]; first compound 4 µM)	relative viability ([4]; first compound 0.04 µM)	relative viability ([4]; first compound 0.1265 µM)	relative viability ([4]; first compound 0.4 µM)	relative viability ([4]; first compound 1.265 µM)	relative viability ([4]; first compound 4 µM)
SK-LU-1	1.08	1.06	1.05	0.942	0.156	0.181	0.206	0.166	0.37	0.356	0.365	0.385	0.359	0.952	0.892	0.933	0.809	0.558
LOU-NH91	0.698	0.677	0.811	0.749	0.527	0.572	0.624	0.545	0.626	0.667	0.688	0.601	0.591	0.378	0.378	0.393	0.44	0.368
LXF-289	1.03	0.973	1.06	1	0.267	0.184	0.228	0.185	0.639	0.821	0.986	0.709	0.763	0.861	0.909	0.948	0.929	0.79
NCI-H1299	1.13	1.22	1.04	1.06	–	–	–	–	–	–	–	–	–	–	–	–	–	–
HARA	0.821	0.811	0.898	0.82	0.217	0.3	0.196	0.187	–	0.437	0.638	–	0.481	0.191	0.209	0.257	0.249	0.236
LU99A	0.545	0.579	0.65	0.566	0.522	0.744	0.836	0.645	–	0.328	0.292	0.277	0.316	–	0.189	0.191	0.23	0.188
201T	1.06	0.841	1.04	1.04	0.62	0.561	0.602	0.602	0.844	0.835	0.961	1.01	0.856	0.316	0.297	0.382	0.29	0.314
HCC-827	0.97	0.668	0.916	0.972	0.366	0.228	0.302	0.308	0.849	0.873	0.844	0.922	0.764	–	0.272	0.268	0.292	0.264
NCI-H1666	0.907	0.849	1.18	1.13	0.718	0.941	0.821	0.783	0.917	0.979	0.935	1.14	1.06	0.872	0.815	0.847	0.956	0.974
NCI-H1915	1	1.06	1.07	1.09	0.286	0.311	0.316	0.308	0.562	0.64	0.63	–	0.489	–	0.501	0.541	–	0.449
NCI-H2009	1.25	1.16	1.13	1.14	0.323	0.265	0.318	0.31	0.675	0.77	0.655	0.714	0.624	0.984	0.975	0.943	0.866	0.765
ChaGo-K-1	–	–	–	–	0.58	0.657	0.643	0.627	0.496	0.487	0.487	0.297	0.564	0.259	0.277	0.257	0.234	0.241
COR-L 105	0.954	1.05	1.11	0.852	0.332	0.364	0.382	0.368	0.719	0.943	0.852	0.517	0.563	1	1.12	0.94	0.98	0.619
NCI-H2170	0.734	0.761	0.81	0.684	0.536	0.52	0.574	0.643	0.775	0.739	0.747	0.515	0.718	0.284	0.249	0.271	0.277	0.263
A549	0.55	0.65	0.881	0.848	–	–	–	–	–	–	–	–	–	–	–	–	–	–
SW 1573	0.722	0.625	0.774	0.755	–	0.647	0.658	0.486	0.694	0.604	0.69	0.485	0.485	0.792	0.792	0.845	0.582	0.703
NCI-H1975	0.667	0.622	0.58	0.629	0.405	0.417	0.492	0.413	0.799	0.876	0.666	0.673	0.533	0.313	0.31	0.265	0.228	0.211
